# Earlier results, collected in publication PMC12281572.
# Where “and” joins values, the source holds several entries; their conditions need not be identical. Identical values can stand only once.
# Test: FTIR, 4-fluorophenol as donor (the pK_BHX database, per the paper)
# Details: CCl4; 25 C
row,"pK_BHX (log10 Kf of the 1:1 H-bond complex with 4-fluorophenol, by FTIR)",Structure (SMILES)
1,0.4 log units,CC(C)(C)SC(C)(C)C
2,1.21 log units,CC1(C)CC(=O)C=C(Cl)C1
3,3.59 log units,CCCCCCCCP(=O)(CCCCCCCC)CCCCCCCC
4,2.14 log units,CN(C)C(=O)c1ccc(F)cc1
5,-0.14 log units,C1CSCCS1
6,0.86 log units,OCc1ccccc1
7,2.01 log units,CC(=Nc1ccc(C)cc1)Nc1ccc(C)cc1
8,1.99 log units,CN(C)C=NCc1cccc(C(F)(F)F)c1
9,2.09 log units,CN(C)C=NC#N
10,2.92 log units,Cc1ccc[n+]([O-])c1
11,2.89 log units,CCN(CC)c1ccncc1
12,1.27 log units,OC12CC3CC(CC(C3)C1)C2
13,1.21 log units,CC(=O)c1ccc(C(C)C)cc1
14,1.55 log units,O=[N+]([O-])C=CN1CCCCC1
15,1.11 log units,CN(C(=Nc1ccc(Br)cc1)c1ccccc1)c1ccccc1
16,2.2 log units,CNC(C)C
17,0.63 log units,C#CC(=O)OCC
18,1.23 log units,COc1ccc(N(C)C(=Nc2ccc(Br)cc2)c2ccccc2)cc1
19,1.97 log units,c1ccc2cnncc2c1
20,1.02 log units,CN(C)C(=S)c1ccccc1

row,"pK_BHX (log10 Kf of the 1:1 H-bond complex with 4-fluorophenol, by FTIR)",Structure (SMILES)
1,1.85 log units,CC(=Nc1ccccc1)Nc1ccc(C)cc1
2,1.44 log units,CC(=Nc1ccccc1)N(C)c1cccc(Cl)c1
3,0.58 log units,COCOC
4,-0.01 log units,CCOc1ccccc1
5,2.1 log units,CN(C)C=NCc1cccc(Cl)c1
6,1.0 log units,O=C1CCC1
7,1.83 log units,CCOC(=O)N(C)C
8,2.19 log units,CC(=O)N(C)c1ccccc1
9,2.68 log units,c1cc(N2CCCCC2)ccn1
10,0.12 log units,CSC
11,1.67 log units,CN(C)c1ccc(C(=O)c2ccccc2)cc1
12,-0.28 log units,c1ccc(C23CC4CC(CC(C4)C2)C3)cc1
13,1.44 log units,C1C2CC3CC1CC(C2)C31OC12C1CC3CC(C1)CC2C3 (centres unmarked)
14,3.7 log units,COc1cc[n+]([O-])cc1
15,1.14 log units,CNC(C)=S
16,0.73 log units,CCSC(=O)OC
17,2.19 log units,CN1CCCC1
18,1.33 log units,CCN(CC)c1ccc(N=O)cc1
19,0.13 log units,C1CSC1
20,1.33 log units,CN(C)C(=S)c1ccc(N)cc1

row,"pK_BHX (log10 Kf of the 1:1 H-bond complex with 4-fluorophenol, by FTIR)",Structure (SMILES)
1,0.41 log units,C1=COCCC1
2,1.6 log units,CN(C)C=NCC(F)(F)F
3,1.49 log units,CN=Cc1ccccc1
4,0.99 log units,CC(C)(C)C#N
5,1.19 log units,CC(=Nc1ccc(Br)cc1)N(C)c1ccc(Br)cc1
6,-0.22 log units,C#CCCCC
7,2.27 log units,CCCCCCCCN
8,2.47 log units,CCN(CC)C(C)=O
9,2.24 log units,CCC(=O)NC
10,-0.47 log units,BrC1CC1
11,1.45 log units,O=C1CCCCCCC1
12,1.3 log units,c1cocn1
13,-0.37 log units,COc1ccccc1C
14,3.12 log units,c1ncn(C2CCCCC2)c1C1CCCCC1
15,0.31 log units,FC12CC3CC(CC(C3)C1)C2
16,2.24 log units,CC(C)N(C=O)C(C)C
17,0.86 log units,O=[N+]([O-])c1cccc(N=C(Nc2ccccc2)c2ccccc2)c1
18,2.3 log units,CN(C)C(=O)C12CC3CC(CC(C3)C1)C2

row,Structure (SMILES),"pK_BHX (log10 Kf of the 1:1 H-bond complex with 4-fluorophenol, by FTIR)"
1,C1CCNC1,2.59 log units
2,COc1ccc(C)cc1,0.08 log units
3,c1ccc(-c2ccccn2)nc1,1.15 log units
4,C1CCCNCC1,2.24 log units
5,C1CNCCN1,2.11 log units
6,c1cnccn1,0.92 log units
7,CCOC(=O)OCC,0.88 log units
8,O=C1CCCCO1,1.57 log units
9,CN1CCN(C)C1=O,2.46 log units
10,CC(=O)c1cccnc1,1.39 log units and 0.9 log units
11,C=CCNCC=C,1.7 log units
12,N#CN1CCCCC1,1.58 log units
13,CCOC(=O)c1ccc(Br)cc1,0.78 log units
14,CC(C)(C)C(=O)C(C)(C)C,0.96 log units
15,[O-][n+]1ccccc1,2.72 log units
16,O=CN1CCOCC1,1.93 log units
17,c1ccc2cnccc2c1,1.94 log units
18,Clc1ccccn1,1.05 log units
19,O=C(C(=O)c1ccccc1)c1ccccc1,0.44 log units
20,c1ccncc1,1.86 log units
21,COc1ccccc1,-0.07 log units
22,CC(C)O,1.06 log units
23,CC(C)I,-0.37 log units
24,CN(C)c1ccncc1,2.8 log units
25,CC(=O)c1ccc(C)cc1,1.24 log units
